Counter-ions that a name gives are not always drawn. Like-named read-outs stand apart in the source and are kept apart here.
Biological target: T1, PI3Kδ (p110δ/p85α) (Homo sapiens, UniProt O00329)
T1 construct: purchased Millipore (Bedford, Mass.)
Assay: PI3Kδ scintillation proximity assay
Type: biochemical
From the text: Materials: [γ-^33P]ATP (10 mCi/mL) was purchased from Perkin-Elmer (Waltham, Mass.). Lipid kinase substrate, D-myo-Phosphatidylinositol 4,5-bisphosphate (PtdIns(4,5)P2)D (+)-sn-1,2-di-O-octanoylglyceryl, 3-O-phospho linked (PIP2), CAS 204858-53-7, was purchased from Echelon Biosciences (Salt Lake City, Utah). PI3Kδ (p110δ/p85α) was purchased from Millipore (Bedford, Mass.). ATP, MgCl2, DTT, EDTA, MOPS and CHAPS were purchased from Sigma-Aldrich (St. Louis, Mo.). Wheat Germ Agglutinin (WGA) YSi SPA Scintillation Beads was purchased from GE healthcare life sciences (Piscataway, N.J.).
Assay: The kinase reaction was conducted in polystyrene 384-well matrix white plate from Thermo Fisher Scientific in a final volume of 25 μL. Inhibitors were first diluted serially in DMSO and added to the plate wells before the addition of other reaction components. The final concentration of DMSO in the assay was 0.5%. The PI3K assays were carried out at room temperature in 20 mM MOPS, pH 6.7, 10 mM MgCl2, 5 mM DTT and CHAPS 0.03%. Reactions were initiated by the addition of ATP, the final reaction mixture consisted of 20 μM PIP2, 20 μM ATP, 0.2 μCi [γ-^33P] ATP, 4 nM PI3Kδ. Reactions were incubated for 210 minutes and terminated by the addition of 40 μL SPA beads suspended in quench buffer: 150 mM potassium phosphate pH 8.0, 20% glycerol. 25 mM EDTA, 400 μM ATP. The final concentration of SPA beads is 1.0 mg/mL. After the plate sealing, plates were shaken overnight at room temperature and centrifuged at 1800 rpm for 10 minutes, the radioactivity of the product was determined by scintillation counting on Topcount (Perkin-Elmer). IC50 determination was performed by fitting the curve of percent control activity versus the log of the inhibitor concentration using the GraphPad Prism® 3.0 software.

T1 sequence (O00329 whole entry): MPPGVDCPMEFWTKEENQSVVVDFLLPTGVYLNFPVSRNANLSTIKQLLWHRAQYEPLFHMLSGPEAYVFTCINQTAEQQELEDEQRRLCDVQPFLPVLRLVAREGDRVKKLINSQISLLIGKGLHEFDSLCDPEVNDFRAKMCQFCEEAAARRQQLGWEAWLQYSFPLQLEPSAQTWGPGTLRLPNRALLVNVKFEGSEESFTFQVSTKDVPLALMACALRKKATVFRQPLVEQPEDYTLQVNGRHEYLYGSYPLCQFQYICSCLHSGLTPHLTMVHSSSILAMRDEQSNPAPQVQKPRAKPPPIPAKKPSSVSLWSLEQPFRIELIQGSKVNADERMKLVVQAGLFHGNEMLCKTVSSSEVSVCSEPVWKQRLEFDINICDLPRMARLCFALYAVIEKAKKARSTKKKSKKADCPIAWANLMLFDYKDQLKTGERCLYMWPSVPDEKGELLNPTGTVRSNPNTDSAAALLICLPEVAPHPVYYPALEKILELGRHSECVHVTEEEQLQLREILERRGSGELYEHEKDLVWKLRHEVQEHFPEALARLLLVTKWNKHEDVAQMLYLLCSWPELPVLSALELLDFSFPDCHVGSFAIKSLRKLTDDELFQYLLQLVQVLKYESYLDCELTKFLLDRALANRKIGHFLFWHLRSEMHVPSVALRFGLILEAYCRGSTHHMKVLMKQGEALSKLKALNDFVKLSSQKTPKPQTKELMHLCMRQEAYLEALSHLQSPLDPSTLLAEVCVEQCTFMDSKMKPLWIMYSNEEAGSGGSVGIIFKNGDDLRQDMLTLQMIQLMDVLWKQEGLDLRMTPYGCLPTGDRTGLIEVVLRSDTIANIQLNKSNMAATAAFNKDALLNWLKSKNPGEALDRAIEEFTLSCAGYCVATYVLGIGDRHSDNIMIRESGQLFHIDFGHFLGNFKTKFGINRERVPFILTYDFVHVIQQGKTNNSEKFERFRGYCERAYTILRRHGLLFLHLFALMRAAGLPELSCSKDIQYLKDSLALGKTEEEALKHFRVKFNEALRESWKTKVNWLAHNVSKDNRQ
T1 sequence (P27986 whole entry partner): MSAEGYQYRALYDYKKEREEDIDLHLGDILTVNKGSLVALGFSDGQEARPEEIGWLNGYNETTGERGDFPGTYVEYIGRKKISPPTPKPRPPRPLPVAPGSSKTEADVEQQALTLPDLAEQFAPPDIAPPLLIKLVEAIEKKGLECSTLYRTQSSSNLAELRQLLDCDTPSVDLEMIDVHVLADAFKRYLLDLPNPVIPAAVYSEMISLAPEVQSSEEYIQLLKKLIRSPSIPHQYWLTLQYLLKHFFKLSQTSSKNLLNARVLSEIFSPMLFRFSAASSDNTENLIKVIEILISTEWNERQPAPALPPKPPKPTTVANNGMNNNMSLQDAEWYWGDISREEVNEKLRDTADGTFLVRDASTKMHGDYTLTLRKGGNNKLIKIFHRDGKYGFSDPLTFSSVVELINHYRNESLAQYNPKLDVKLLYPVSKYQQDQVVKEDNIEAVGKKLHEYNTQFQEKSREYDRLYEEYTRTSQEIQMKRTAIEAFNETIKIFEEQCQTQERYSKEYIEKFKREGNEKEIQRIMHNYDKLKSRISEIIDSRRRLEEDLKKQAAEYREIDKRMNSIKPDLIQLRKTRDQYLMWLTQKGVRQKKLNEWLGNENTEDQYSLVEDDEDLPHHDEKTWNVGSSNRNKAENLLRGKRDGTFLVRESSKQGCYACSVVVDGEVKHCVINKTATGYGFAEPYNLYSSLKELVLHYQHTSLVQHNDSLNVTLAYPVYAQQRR

Row | Compound | IC50 [nM] | IC50 (separated isomer, 1st peak) [nM] | IC50 (separated isomer, 2nd peak) [nM]
1 | Fc1cccc(-c2c(CNc3ncnc4[nH]cnc34)cc(Cl)c3ccnnc23)c1 [Example 31, N-{[5-Chloro-8-(3-fluorophenyl)cinnolin-7-yl]methyl}-9H-purin-6-amine trifluoroacetate] | 500 to 1000 | – | –
2 | CC(Nc1nc(N)nc2[nH]cnc12)c1ccc2ccccc2c1-c1cncc(F)c1 (stereo not drawn) [Example 3, N(6)-{1-[1-(5-fluoropyridin-3-yl)-2-naphthyl]ethyl}-9H-purine-2,6-diamine bis-trifluoroacetate] | < 50 | – | –
3 | CC(Nc1ncnc2[nH]cnc12)c1cc(Cl)c2cccnc2c1N1CCN(CC(=O)N(C)C)CC1 (stereo not drawn) [Example 90, 2-(4-{5-Chloro-7-[1-(9H-purin-6-ylamino)ethyl]quinolin-8-yl}piperazin-1-yl)-N,N-dimethylacetamide tris(trifluoroacetate)] | < 50 | – | –
4 | CC(Nc1ncnc2[nH]cnc12)c1cc(Cl)c2cccnc2c1N1CCN(C(=O)c2cnccn2)CC1 (stereo not drawn) [Example 97, N-(1-{5-Chloro-8-[4-(pyrazin-2-ylcarbonyl)piperazin-1-yl]quinolin-7-yl}ethyl)-9H-purin-6-amine bis(trifluoroacetate)] | < 50 | – | –
5 | CC(Nc1ncnc2[nH]cnc12)c1ccc2cccnc2c1-c1ccccc1F (stereo not drawn) [Example 7, N-{1-[8-(2-fluorophenyl)quinolin-7-yl]ethyl}-9H-purin-6-amine bis-trifluoroacetate] | – | > 1000 | 500 to 1000
6 | CC(Nc1ncnc2[nH]cnc12)c1cc(Cl)c2cccnc2c1N1CCC(c2ccccc2)C1 (stereo not drawn) [Example 76, N-{1-[5-Chloro-8-(3-phenylpyrrolidin-1-yl)quinolin-7-yl]ethyl}-9H-purin-6-amine tris(trifluoroacetate)] | – | 250 to 500 | 250 to 500
7 | CC(Nc1ncnc2[nH]cnc12)c1cc(F)c2cccnc2c1-c1cccc(F)c1 (stereo not drawn) [Example 102, N-{1-[5-fluoro-8-(3-fluorophenyl)quinolin-7-yl]ethyl}-9H-purin-6-amine] | – | < 50 | > 1000
8 | CC(Nc1ncnc2[nH]cnc12)c1cc(Cl)c2ccnnc2c1-c1ccccc1F (single isomer, unassigned) [Example 26, N-{1-[5-Chloro-8-(2-fluorophenyl)cinnolin-7-yl]ethyl}-9H-purin-6-amine] | 250 to 500 | – | –
9 | CC(Nc1ncnc2[nH]cnc12)c1cc(Cl)c2cccnc2c1N1CCN(C(=O)c2cccc(F)c2)CC1 (stereo not drawn) [Example 92, N-(1-{5-Chloro-8-[4-(3-fluorobenzoyl)piperazin-1-yl]quinolin-7-yl}ethyl)-9H-purin-6-amine bis(trifluoroacetate)] | 100 to 250 | – | –
10 | CC(Nc1ncnc2[nH]cnc12)c1nc(C#N)c2ccccc2c1-c1cccc(F)c1 (stereo not drawn) [Example 54, 4-(3-fluorophenyl)-3-[1-(9H-purin-6-ylamino)ethyl]isoquinoline-1-carbonitrile] | 50 to 100 | – | –
11 | CC(Nc1ncnc2[nH]cnc12)c1cc(Cl)c2cccnc2c1N1CCC(O)(c2ccccc2)CC1 (stereo not drawn) [Example 49, 1-{5-Chloro-7-[1-(9H-purin-6-ylamino)ethyl]quinolin-8-yl}-4-phenylpiperidin-4-ol] | > 1000 | – | –
12 | CC(Nc1ncnc2[nH]cnc12)c1cc(Cl)c2cccnc2c1N1CC[C@H](F)C1 (mixture of isomers) [Example 57, N-(1-{5-Chloro-8-[(3S)-3-fluoropyrrolidin-1-yl]quinolin-7-yl}ethyl)-9H-purin-6-amine bis(trifluoroacetate)] | 250 to 500 | – | –
13 | CC(Nc1ncnc2[nH]cnc12)c1cc(Cl)c2cccnc2c1N1CCN(C(=O)c2ccccc2F)CC1 (stereo not drawn) [Example 93, N-(1-{5-Chloro-8-[4-(2-fluorobenzoyl)piperazin-1-yl]quinolin-7-yl}ethyl)-9H-purin-6-amine bis(trifluoroacetate)] | 250 to 500 | – | –
14 | CC(Nc1ncnc2[nH]cnc12)c1cc(Cl)c2cccnc2c1N1CC[C@@H](O)C1 (stereo partly drawn) [Example 12, (3R)-1-{5-chloro-7-[1-(9H-purin-6-ylamino)ethyl]quinolin-8-yl}pyrrolidin-3-ol bis-trifluoroacetate] | – | > 1000 | < 50

Reference: patent US8680108B2, “Substituted fused aryl and heteroaryl derivatives as PI3K inhibitors” (Incyte Corporation, priority 2009, dated 2014)
